Test results taken from ChEMBL document CHEMBL1201862, “PubChem BioAssay data set” (2004).
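48-hour exposure; five concentrations; linearly interpolated endpoints. GI50: concentration for 50% inhibition of growth.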 The source made the active and inactive calls. Rule as the data show it: active = GI50 up to about 1.1 µM and inactive = higher.

What was measured:
Test in all cases: DTP human tumour cell line panel, 48 h
IGROV-1 = system: IGROV-1
OVCAR-3 = system: OVCAR-3
HCC 2998 = system: HCC 2998
NCI-H460 = system: NCI-H460
UACC-257 = system: UACC-257
SF-268 = system: SF-268
MCF7 = system: MCF7
NCI-H522 = system: NCI-H522
HL-60 = system: HL-60
TK-10 = system: TK-10
SF-295 = system: SF-295
MDA-MB-231 = system: MDA-MB-231
ACHN = system: ACHN
HT-29 = system: HT-29
SNB-19 = system: SNB-19
Hs-578T = system: Hs-578T
SK-MEL-5 = system: SK-MEL-5
DU-145 = system: DU-145
OVCAR-8 = system: OVCAR-8
CCRF-CEM = system: CCRF-CEM

With O=Nc1ccc(O)c2ncccc12 the GI50 (IGROV-1) was 5.46 µM (inactive), the GI50 (OVCAR-3) was 3.33 µM (inactive) and the GI50 (HCC 2998) was 15.6 µM (inactive). The GI50 (NCI-H460) was 1.25 µM (inactive), the GI50 (UACC-257) was 6.37 µM (inactive) and the GI50 (SF-268) was 3.68 µM (inactive). The GI50 (MCF7) was 1.76 µM (inactive), the GI50 (NCI-H522) was 1.43 µM (inactive) and the GI50 (HL-60) was 0.581 µM (active). For the same molecule, the GI50 (TK-10) was 14.8 µM (inactive), the GI50 (SF-295) was 8.05 µM (inactive) and the GI50 (MDA-MB-231) was 6.43 µM (inactive). The GI50 (ACHN) was 3.13 µM (inactive), the GI50 (HT-29) was 15.3 µM (inactive) and the GI50 (SNB-19) was 16 µM (inactive). The GI50 (Hs-578T) was 0.531 µM (active), the GI50 (SK-MEL-5) was 7.21 µM (inactive) and the GI50 (DU-145) was 5.7 µM (inactive). For the same molecule, the GI50 (OVCAR-8) was 3.47 µM (inactive) and the GI50 (CCRF-CEM) was 0.611 µM (active).
Cc1cc(NCC2CC/C(=C\C=C\c3ccccc3)C2=O)no1 (stereo not given) was tested, and the GI50 (IGROV-1) was > 100 µM (inactive), the GI50 (OVCAR-3) was > 100 µM (inactive) and the GI50 (HCC 2998) was > 100 µM (inactive). The GI50 (NCI-H460) was > 100 µM (inactive), the GI50 (UACC-257) was 57.8 µM (inactive) and the GI50 (SF-268) was > 100 µM (inactive). For the same molecule, the GI50 (MCF7) was 63.4 µM (inactive), the GI50 (NCI-H522) was > 100 µM (inactive) and the GI50 (HL-60) was 42.7 µM (inactive). For the same molecule, the GI50 (TK-10) was 84.9 µM (inactive), the GI50 (SF-295) was 40.8 µM (inactive) and the GI50 (MDA-MB-231) was 98.4 µM (inactive). For the same molecule, the GI50 (ACHN) was 93.8 µM (inactive), the GI50 (HT-29) was > 100 µM (inactive) and the GI50 (SNB-19) was > 100 µM (inactive). For the same molecule, the GI50 (Hs-578T) was 85.1 µM (inactive), the GI50 (SK-MEL-5) was 94.4 µM (inactive) and the GI50 (DU-145) was > 100 µM (inactive). For the same molecule, the GI50 (OVCAR-8) was > 100 µM (inactive) and the GI50 (CCRF-CEM) was > 100 µM (inactive).
COC(=O)CCC(=O)NC1=C(Nc2ccccc2)C(=O)c2ccccc2C1=O was tested, and the GI50 (IGROV-1) was 11.5 µM (inactive), the GI50 (OVCAR-3) was 2.94 µM (inactive) and the GI50 (HCC 2998) was 22.9 µM (inactive). The GI50 (NCI-H460) was 15.3 µM (inactive), the GI50 (UACC-257) was 2.84 µM (inactive) and the GI50 (SF-268) was 13.2 µM (inactive). The GI50 (MCF7) was 3.89 µM (inactive), the GI50 (NCI-H522) was 14.8 µM (inactive) and the GI50 (HL-60) was 3.36 µM (inactive). The GI50 (TK-10) was 22.5 µM (inactive), the GI50 (SF-295) was 15.4 µM (inactive) and the GI50 (MDA-MB-231) was 9.66 µM (inactive). The GI50 (ACHN) was 14.9 µM (inactive), the GI50 (HT-29) was 16.9 µM (inactive) and the GI50 (SNB-19) was 17.2 µM (inactive). For the same molecule, the GI50 (Hs-578T) was 7.18 µM (inactive), the GI50 (SK-MEL-5) was 1.83 µM (inactive) and the GI50 (DU-145) was 10.8 µM (inactive). For the same molecule, the GI50 (OVCAR-8) was 11.4 µM (inactive) and the GI50 (CCRF-CEM) was 9.95 µM (inactive).
With O=c1c2nc(-c3ccccc3)oc2n(-c2ccccc2)c(=O)n1-c1ccccc1 the GI50 (IGROV-1) was 26.5 µM (inactive), the GI50 (OVCAR-3) was 25.8 µM (inactive) and the GI50 (HCC 2998) was > 46.5 µM (inactive). For the same molecule, the GI50 (NCI-H460) was 31.8 µM (inactive), the GI50 (UACC-257) was 36.3 µM (inactive) and the GI50 (SF-268) was 20.7 µM (inactive). For the same molecule, the GI50 (MCF7) was 45.7 µM (inactive), the GI50 (NCI-H522) was 21.4 µM (inactive) and the GI50 (HL-60) was > 100 µM (inactive). For the same molecule, the GI50 (TK-10) was 15 µM (inactive), the GI50 (SF-295) was 19.1 µM (inactive) and the GI50 (MDA-MB-231) was 29.3 µM (inactive). The GI50 (ACHN) was 25.9 µM (inactive), the GI50 (HT-29) was > 46.5 µM (inactive) and the GI50 (SNB-19) was 20.7 µM (inactive). The GI50 (Hs-578T) was 21.9 µM (inactive), the GI50 (SK-MEL-5) was 23.7 µM (inactive) and the GI50 (DU-145) was 82.2 µM (inactive). The GI50 (OVCAR-8) was 23.3 µM (inactive) and the GI50 (CCRF-CEM) was > 46.5 µM (inactive).
In the case of CCC(N)(C(=O)O)C(C)C (stereo not given), the GI50 (IGROV-1) is reported as > 100 µM (inactive), the GI50 (OVCAR-3) is reported as > 100 µM (inactive) and the GI50 (HCC 2998) is reported as > 100 µM (inactive). For the same molecule, the GI50 (NCI-H460) was > 100 µM (inactive), the GI50 (UACC-257) was > 100 µM (inactive) and the GI50 (SF-268) was > 100 µM (inactive). The GI50 (MCF7) was > 100 µM (inactive), the GI50 (NCI-H522) was > 100 µM (inactive) and the GI50 (HL-60) was > 100 µM (inactive). The GI50 (TK-10) was > 100 µM (inactive), the GI50 (SF-295) was > 100 µM (inactive) and the GI50 (MDA-MB-231) was > 100 µM (inactive). The GI50 (ACHN) was > 100 µM (inactive), the GI50 (HT-29) was > 100 µM (inactive) and the GI50 (SNB-19) was > 100 µM (inactive). The GI50 (Hs-578T) was > 100 µM (inactive), the GI50 (SK-MEL-5) was > 100 µM (inactive) and the GI50 (DU-145) was > 100 µM (inactive). For the same molecule, the GI50 (OVCAR-8) was > 100 µM (inactive) and the GI50 (CCRF-CEM) was > 100 µM (inactive).
In the case of [Se]=P(c1ccccc1)(c1ccccc1)c1ccc(C(c2ccccc2)=P(c2ccccc2)(c2ccccc2)c2ccccc2)cc1, the GI50 (IGROV-1) is reported as 0.773 µM (active), the GI50 (OVCAR-3) is reported as 0.621 µM (active) and the GI50 (HCC 2998) is reported as 0.979 µM (active). For the same molecule, the GI50 (NCI-H460) was 1.28 µM (inactive), the GI50 (UACC-257) was 0.817 µM (active) and the GI50 (SF-268) was 0.514 µM (active). For the same molecule, the GI50 (MCF7) was 0.695 µM (active), the GI50 (NCI-H522) was 0.33 µM (active) and the GI50 (HL-60) was 0.0881 µM (active). For the same molecule, the GI50 (TK-10) was 1.41 µM (inactive), the GI50 (SF-295) was 2.27 µM (inactive) and the GI50 (MDA-MB-231) was 0.661 µM (active). The GI50 (ACHN) was 2.44 µM (inactive), the GI50 (HT-29) was 0.406 µM (active) and the GI50 (SNB-19) was 1.01 µM (active). For the same molecule, the GI50 (Hs-578T) was 0.435 µM (active), the GI50 (SK-MEL-5) was 0.505 µM (active) and the GI50 (DU-145) was 1.24 µM (inactive). The GI50 (OVCAR-8) was 0.764 µM (active) and the GI50 (CCRF-CEM) was 0.495 µM (active).
Cn1c(=O)n(CC(Br)CBr)c(=O)n(CC(Br)CBr)c1=O (stereo not given) was tested, and the GI50 (IGROV-1) was 39.9 µM (inactive), the GI50 (OVCAR-3) was 38.5 µM (inactive) and the GI50 (HCC 2998) was 28.4 µM (inactive). For the same molecule, the GI50 (NCI-H460) was 33.4 µM (inactive), the GI50 (UACC-257) was 31.8 µM (inactive) and the GI50 (SF-268) was 74.6 µM (inactive). The GI50 (MCF7) was 45.8 µM (inactive), the GI50 (NCI-H522) was 28 µM (inactive) and the GI50 (HL-60) was 20.4 µM (inactive). The GI50 (TK-10) was 55.5 µM (inactive), the GI50 (SF-295) was 45 µM (inactive) and the GI50 (MDA-MB-231) was 33.7 µM (inactive). For the same molecule, the GI50 (ACHN) was 36.6 µM (inactive), the GI50 (HT-29) was 21.7 µM (inactive) and the GI50 (SNB-19) was 75.7 µM (inactive). The GI50 (Hs-578T) was > 100 µM (inactive), the GI50 (SK-MEL-5) was 16.5 µM (inactive) and the GI50 (DU-145) was 71.3 µM (inactive). The GI50 (OVCAR-8) was 58.7 µM (inactive) and the GI50 (CCRF-CEM) was 22.7 µM (inactive).
